Source: patent US9072695B2, “Aromatase activator” (Kao Corporation, priority 2011, dated 2015)

Molecular target: T1, aromatase (Homo sapiens, UniProt P11511)
T1 construct: host or cells: human skin fibroblasts (HDF1616)
T1 sequence (P11511 1-503): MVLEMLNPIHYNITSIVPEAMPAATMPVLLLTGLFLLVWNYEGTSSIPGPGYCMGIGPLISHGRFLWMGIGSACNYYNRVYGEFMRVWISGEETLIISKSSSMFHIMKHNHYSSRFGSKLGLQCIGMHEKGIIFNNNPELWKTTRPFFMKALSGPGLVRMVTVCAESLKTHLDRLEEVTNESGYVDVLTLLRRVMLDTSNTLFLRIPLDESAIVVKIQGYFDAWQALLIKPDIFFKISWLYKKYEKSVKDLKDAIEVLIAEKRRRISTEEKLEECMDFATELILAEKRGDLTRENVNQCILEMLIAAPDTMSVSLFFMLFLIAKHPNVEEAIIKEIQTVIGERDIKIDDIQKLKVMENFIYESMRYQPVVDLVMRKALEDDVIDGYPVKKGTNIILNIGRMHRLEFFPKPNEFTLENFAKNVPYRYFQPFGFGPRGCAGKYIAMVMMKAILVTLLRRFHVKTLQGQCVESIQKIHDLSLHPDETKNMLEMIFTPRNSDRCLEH
Test: Aromatase activation effect in fibroblasts derived from human skin (3H2O release from 1β-3H-androst-4-ene-3,17-dione)
Assay type: cell-based
Settings: for Aromatase activity: fibroblasts (HDF1616) derived from human skin, amount added 4.65 × 10^−6 mol/L, control 6.85; for Aromatase activation effect (in words): fibroblasts derived from human skin, 4.65×10^−6 mol/L, compared with control (no addition)
Experimental: The aromatase activation effect of the compounds 1 and 2 prepared in Production Example 1 was examined with reference to Stampfer M J, Willett W C, Colditz G A, Rosner B, Speizer F E and Hennenkens C H, N. Engl. J. Med., 313, 1044-1049, 1985.
Fibroblasts (HDF1616: KURABO) derived from human skin were planted in a 24-well cell culture plate (FALCON) to culture until it became confluent. The medium was removed and 900 μL of a serum-free medium was added to the wells to culture for 24 hr. At this time, the compound 1 or 2 prepared using an aqueous 95% ethanol solution such that the final concentration was 4.65×10^−6 mol/L was added to the wells. Also, a sample in which an aqueous 95% ethanol solution was added and a sample (no addition) in which no material was added were prepared as controls.
1β-3H-androst-4-ene-3,17-dione (Perkin Elmer) which was the substrate of aromatase was added in the serum-free medium such that the concentration was 37 kBq/100 μL and added in an amount of 100 μL in each well to culture for 24 hr. 900 μL of the culture product was taken, in a 2 mL tube from one well and 1 mL of CHCl3 was added to the cultured product, which was then stirred vigorously. The cultured product was centrifuged at 15,000 rpm for 10 min to transfer the upper layer (water layer) to another tube. 200 μL of Charcoal/Dextran (which is one obtained by suspending 5 g of Charcoal, dextran coated (SIGMA) in 50 mL of H2O) was added to the upper layer, which was fairly mixed and then allowed to stand at ambient temperature for 30 min. The mixture was centrifuged at 15,000 rpm for 10 min and the supernatant was transferred to a new tube. 1 mL of […] was added to the supernatant, which was then vigorously stirred and centrifuged at 15,000 rpm for 10 min and the upper layer (water layer) was added to 5 mL of Ultima Gold (Perkin Elmer) to measure the radioactivity of ^3H by a liquid scintillation counter (Perkin Elmer Tricarb 2550). The same serum-free medium containing no cell was incubated for the same hours without adding a drug, followed by the same procedures to measure the radioactivity of ^3H and the radioactivity was subtracted from the above measured radioactivity.
1β-3H-androst-4-ene-3,17-dione releases ^3H2O by an aromatase reaction and is converted into estrogen having no radioactivity. In this experimental method, the radioactivity of released ^3H2O is detected, showing that the higher the radioactivity is, the higher the aromatase activity is.

Aromatase activity | Aromatase activation effect (in words) | Compound
21.68 fmol/day/well | activated aromatase existing in cells | CC1=CC[C@H](C)C(C)(C)[C@@H]1CC/C(C)=C/CC[C@@]1(C)[C@H](CCCO)/C(=C(/C)C=O)CC[C@]1(C)O [Compound 1]
22.34 fmol/day/well | activated aromatase existing in cells | C=C1CC[C@H](C)C(C)(C)[C@@H]1CC/C(C)=C/CC[C@@]1(C)[C@H](CCCO)/C(=C(/C)C=O)CC[C@]1(C)O [Compound 2]
